The record followed here is the Kinase Knowledgebase extract (Sharma et al. 2016).

The target of one assay is PIK3CD (Human) (UniProt O00329). Description: Assessment of PI3KCD Kinase Activity.
The next assay deals with PIK3CA (human) (UniProt P42336). Description: Assessment of PI3KCA Kinase Activity.
A further assay concerns the target PIK3CB (Human) (UniProt P42338). Kind of assay: Assessment of PI3KCB Kinase Activity.
Another assay deals with PIK3CG (human) (UniProt P48736). Kind of assay: Assessment of PI3KCG Kinase Activity.
Sequence of PIK3CG (human) (P48736 whole entry, looked up): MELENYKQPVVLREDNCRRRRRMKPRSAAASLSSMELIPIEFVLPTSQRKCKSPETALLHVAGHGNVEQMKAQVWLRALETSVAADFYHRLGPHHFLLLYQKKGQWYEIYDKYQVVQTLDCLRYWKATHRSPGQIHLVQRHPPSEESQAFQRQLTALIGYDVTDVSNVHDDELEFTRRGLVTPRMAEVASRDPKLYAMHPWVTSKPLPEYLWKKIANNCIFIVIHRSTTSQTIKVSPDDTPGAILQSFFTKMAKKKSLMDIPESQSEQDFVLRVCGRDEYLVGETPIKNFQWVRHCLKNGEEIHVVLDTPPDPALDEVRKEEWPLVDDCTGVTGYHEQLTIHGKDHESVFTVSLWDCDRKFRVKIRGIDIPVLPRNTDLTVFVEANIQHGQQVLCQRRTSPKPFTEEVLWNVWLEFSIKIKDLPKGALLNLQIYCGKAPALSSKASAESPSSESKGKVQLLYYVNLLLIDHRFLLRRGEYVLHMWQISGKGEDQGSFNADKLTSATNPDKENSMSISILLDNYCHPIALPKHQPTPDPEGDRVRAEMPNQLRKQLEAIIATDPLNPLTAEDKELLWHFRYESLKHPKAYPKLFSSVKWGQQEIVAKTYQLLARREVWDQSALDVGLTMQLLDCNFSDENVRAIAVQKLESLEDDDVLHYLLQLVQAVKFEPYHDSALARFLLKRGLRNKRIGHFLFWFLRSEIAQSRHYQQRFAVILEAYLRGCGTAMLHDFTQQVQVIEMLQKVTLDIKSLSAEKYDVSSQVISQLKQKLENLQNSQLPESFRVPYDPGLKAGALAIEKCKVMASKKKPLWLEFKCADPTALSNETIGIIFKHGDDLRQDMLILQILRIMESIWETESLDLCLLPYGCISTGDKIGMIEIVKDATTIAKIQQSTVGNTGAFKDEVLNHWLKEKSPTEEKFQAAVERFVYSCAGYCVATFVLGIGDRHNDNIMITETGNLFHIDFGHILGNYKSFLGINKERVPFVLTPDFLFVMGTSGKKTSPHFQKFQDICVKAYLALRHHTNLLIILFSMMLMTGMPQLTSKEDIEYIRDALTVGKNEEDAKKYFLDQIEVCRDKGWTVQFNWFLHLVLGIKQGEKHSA

pIC50: −log10 of the molar value.

Sequence of PIK3CA (human) (P42336 whole entry, looked up): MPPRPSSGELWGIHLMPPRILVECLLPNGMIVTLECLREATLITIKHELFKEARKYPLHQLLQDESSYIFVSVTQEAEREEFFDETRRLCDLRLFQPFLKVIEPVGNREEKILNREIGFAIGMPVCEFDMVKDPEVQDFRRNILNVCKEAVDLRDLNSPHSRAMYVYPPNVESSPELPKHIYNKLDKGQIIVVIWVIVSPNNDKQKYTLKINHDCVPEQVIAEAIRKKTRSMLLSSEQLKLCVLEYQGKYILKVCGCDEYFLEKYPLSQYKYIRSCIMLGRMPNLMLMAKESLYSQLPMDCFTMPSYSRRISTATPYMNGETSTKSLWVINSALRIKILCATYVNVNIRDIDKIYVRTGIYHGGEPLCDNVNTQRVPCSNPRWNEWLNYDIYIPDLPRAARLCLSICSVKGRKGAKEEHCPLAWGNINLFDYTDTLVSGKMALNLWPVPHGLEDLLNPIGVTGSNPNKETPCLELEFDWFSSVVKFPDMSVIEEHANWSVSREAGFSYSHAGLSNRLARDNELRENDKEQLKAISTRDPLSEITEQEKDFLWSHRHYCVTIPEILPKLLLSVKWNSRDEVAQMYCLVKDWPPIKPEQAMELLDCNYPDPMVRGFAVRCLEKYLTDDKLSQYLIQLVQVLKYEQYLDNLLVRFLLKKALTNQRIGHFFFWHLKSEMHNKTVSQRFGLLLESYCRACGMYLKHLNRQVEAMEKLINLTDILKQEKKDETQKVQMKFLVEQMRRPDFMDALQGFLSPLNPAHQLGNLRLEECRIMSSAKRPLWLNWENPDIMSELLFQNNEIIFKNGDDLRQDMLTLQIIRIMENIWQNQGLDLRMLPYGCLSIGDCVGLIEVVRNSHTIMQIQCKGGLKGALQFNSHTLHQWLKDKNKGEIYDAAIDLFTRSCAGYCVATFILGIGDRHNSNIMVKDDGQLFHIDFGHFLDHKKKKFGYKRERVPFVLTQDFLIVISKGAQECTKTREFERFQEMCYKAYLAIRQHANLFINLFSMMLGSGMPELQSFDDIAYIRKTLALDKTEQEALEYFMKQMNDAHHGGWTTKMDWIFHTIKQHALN
Sequence of PIK3CB (Human) (P42338 whole entry, looked up): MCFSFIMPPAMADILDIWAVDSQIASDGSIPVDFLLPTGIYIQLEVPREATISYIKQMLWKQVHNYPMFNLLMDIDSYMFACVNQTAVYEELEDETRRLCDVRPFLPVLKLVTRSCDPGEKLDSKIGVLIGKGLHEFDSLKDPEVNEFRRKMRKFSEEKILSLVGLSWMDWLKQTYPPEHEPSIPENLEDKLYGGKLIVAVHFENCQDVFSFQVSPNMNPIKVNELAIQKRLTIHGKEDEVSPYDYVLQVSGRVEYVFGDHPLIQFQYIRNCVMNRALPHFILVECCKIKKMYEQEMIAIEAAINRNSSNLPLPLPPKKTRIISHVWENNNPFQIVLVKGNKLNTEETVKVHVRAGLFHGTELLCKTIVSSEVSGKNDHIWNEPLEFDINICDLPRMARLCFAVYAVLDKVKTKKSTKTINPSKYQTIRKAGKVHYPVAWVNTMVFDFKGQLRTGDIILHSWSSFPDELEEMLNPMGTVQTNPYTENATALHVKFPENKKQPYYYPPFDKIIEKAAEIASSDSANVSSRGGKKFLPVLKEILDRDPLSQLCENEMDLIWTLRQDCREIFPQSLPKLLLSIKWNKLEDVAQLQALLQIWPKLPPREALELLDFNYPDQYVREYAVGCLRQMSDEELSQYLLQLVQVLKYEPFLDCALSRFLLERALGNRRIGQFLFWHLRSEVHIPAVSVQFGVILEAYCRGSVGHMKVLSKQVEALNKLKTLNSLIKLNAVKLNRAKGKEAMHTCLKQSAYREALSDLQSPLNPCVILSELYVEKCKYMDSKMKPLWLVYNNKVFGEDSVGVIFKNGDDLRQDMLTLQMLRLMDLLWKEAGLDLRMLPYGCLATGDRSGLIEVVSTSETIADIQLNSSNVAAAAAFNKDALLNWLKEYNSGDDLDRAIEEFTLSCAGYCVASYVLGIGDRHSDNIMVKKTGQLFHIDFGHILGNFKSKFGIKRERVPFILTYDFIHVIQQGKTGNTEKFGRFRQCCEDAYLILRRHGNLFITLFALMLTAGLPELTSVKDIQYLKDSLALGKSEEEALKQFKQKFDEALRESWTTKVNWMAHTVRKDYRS
Sequence of PIK3CD (Human) (O00329 whole entry, looked up): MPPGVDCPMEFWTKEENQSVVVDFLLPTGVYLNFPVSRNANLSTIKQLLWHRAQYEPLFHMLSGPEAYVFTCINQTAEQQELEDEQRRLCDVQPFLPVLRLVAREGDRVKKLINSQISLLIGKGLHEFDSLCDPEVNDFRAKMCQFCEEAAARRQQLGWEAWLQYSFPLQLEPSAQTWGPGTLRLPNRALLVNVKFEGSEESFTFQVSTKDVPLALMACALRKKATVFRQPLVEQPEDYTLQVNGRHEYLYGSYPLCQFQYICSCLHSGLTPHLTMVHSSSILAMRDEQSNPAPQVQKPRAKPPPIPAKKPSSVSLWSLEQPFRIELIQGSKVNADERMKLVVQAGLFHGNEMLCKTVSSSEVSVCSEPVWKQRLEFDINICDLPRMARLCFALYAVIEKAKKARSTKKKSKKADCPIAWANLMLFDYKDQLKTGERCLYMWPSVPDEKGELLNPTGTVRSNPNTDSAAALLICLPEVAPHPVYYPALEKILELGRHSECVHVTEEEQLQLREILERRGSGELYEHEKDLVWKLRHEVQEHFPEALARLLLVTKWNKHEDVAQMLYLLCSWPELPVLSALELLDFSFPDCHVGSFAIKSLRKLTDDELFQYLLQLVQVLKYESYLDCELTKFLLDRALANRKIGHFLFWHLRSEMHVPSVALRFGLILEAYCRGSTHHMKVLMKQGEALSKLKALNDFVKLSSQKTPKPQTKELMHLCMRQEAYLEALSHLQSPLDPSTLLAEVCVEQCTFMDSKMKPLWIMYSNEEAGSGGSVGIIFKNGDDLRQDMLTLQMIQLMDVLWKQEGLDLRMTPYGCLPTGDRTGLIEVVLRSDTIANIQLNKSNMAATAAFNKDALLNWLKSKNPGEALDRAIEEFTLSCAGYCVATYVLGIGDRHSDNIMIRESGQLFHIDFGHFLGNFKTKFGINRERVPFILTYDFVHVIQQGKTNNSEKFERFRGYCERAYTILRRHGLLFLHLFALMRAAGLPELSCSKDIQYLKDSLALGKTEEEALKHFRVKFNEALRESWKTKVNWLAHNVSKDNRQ

Usually pIC50 stands for the IC50 on a negative log10 scale, so that one unit is a factor of ten. A low value points to a large IC50. Regarding `CC(=O)Nc1nc2ccc(-c3nn(Cc4cc5cccc(C)c5c(=O)n4C4CCC4)c4ncnc(N)c34)cc2s1`, the pIC50 at PIK3CD (Human) and at PIK3CA (human) was > 7.00 in each case.

As for `CC(=O)Nc1nc2ccc(-c3nn(Cc4cc5cccc(Cl)c5c(=O)n4C(C)C)c4ncnc(N)c34)cc2s1`, the negative logarithm of the IC50 (pIC50) against PIK3CD (Human), against PIK3CB (Human) and against PIK3CA (human) was > 7.00 each time.

With `CCn1c(Cn2nc(-c3ccc4nc(NC(C)=O)sc4c3)c3c(N)ncnc32)cc2cccc(C)c2c1=O`, the pIC50 on PIK3CD (Human), at PIK3CG (human) and against PIK3CA (human) was > 7.00 in each case.

Regarding `CNC(=O)Nc1nc2ccc(-c3nn(Cc4cc5cccc(C)c5c(=O)n4-c4ccccc4C)c4ncnc(N)c34)cc2s1`, the pIC50 at PIK3CD (Human), against PIK3CG (human) and against PIK3CA (human) was > 7.00 each time.

`CC(=O)Nc1nc2ccc(-c3nn(Cc4cc5cccc(C)c5c(=O)n4C(C)C)c4ncnc(N)c34)cc2s1`: the negative logarithm of the IC50 (pIC50) at PIK3CD (Human) and at PIK3CA (human) was > 7.00 each time.

Regarding `Cc1csc2nc(Cn3nc(C#C[C@@H](C)O)c4c(N)ncnc43)n(-c3ccccc3F)c(=O)c12`, the negative-log IC50 (pIC50) against PIK3CD (Human) and against PIK3CG (human) was > 7.00 each time.

For `Cc1ccccc1-n1c(Cn2nc(-c3cccc(O)c3)c3c(N)ncnc32)cc2cccc(C)c2c1=O`, the pIC50 on PIK3CD (Human) and at PIK3CG (human) was > 7.00 in each case.

Turning to `Cc1cccc2cc(Cn3nc(-c4cc(O)cc(F)c4)c4c(N)ncnc43)n(C3CC3)c(=O)c12`, the pIC50 against PIK3CD (Human), against PIK3CG (human) and against PIK3CB (Human) was > 7.00 throughout.

Consider `CCc1ccccc1-n1c(Cn2nc(-c3cc(O)cc(F)c3)c3c(N)ncnc32)cc2cccc(C)c2c1=O`, for which the pIC50 at PIK3CD (Human) and at PIK3CG (human) was > 7.00 throughout.

With `Cc1ccccc1-n1c(Cn2nc(-c3cnc4[nH]ccc4c3)c3c(N)ncnc32)cc2cccc(C)c2c1=O`, the pIC50 on PIK3CD (Human) and at PIK3CG (human) was > 7.00 in each case.

As for `Cc1cccc2cc(Cn3nc(-c4ccc(Cl)c(O)c4)c4c(N)ncnc43)n(-c3ccccc3F)c(=O)c12`, the pIC50 against PIK3CD (Human) and on PIK3CG (human) was > 7.00 each time.

As to `Cc1ccccc1-n1c(Cn2nc(-c3ccc(F)c(O)c3)c3c(N)ncnc32)cc2ccccc2c1=O`, the negative logarithm of the IC50 (pIC50) on PIK3CD (Human) and on PIK3CG (human) was > 7.00 throughout.

Take `Cc1cccc2cc(Cn3nc(-c4ccc(F)c(O)c4)c4c(N)ncnc43)n(C(C)C)c(=O)c12`: the negative logarithm of the IC50 (pIC50) against PIK3CD (Human) and at PIK3CG (human) was > 7.00 in each case.

With `Cc1ccccc1-n1c(Cn2nc(-c3cc(O)cc(F)c3)c3c(N)ncnc32)nc2scc(C)c2c1=O`, the pIC50 on PIK3CD (Human) and on PIK3CG (human) was > 7.00 in each case.

As to `CCc1ccccc1-n1c(Cn2nc(-c3cc(O)cc(F)c3)c3c(N)ncnc32)nc2scc(C)c2c1=O`, the negative-log IC50 (pIC50) against PIK3CD (Human) and on PIK3CG (human) was > 7.00 each time.

In the case of `Cc1cccc2cc(Cn3nc(I)c4c(N)ncnc43)n(-c3ccccc3O)c(=O)c12`, the negative-log IC50 (pIC50) against PIK3CD (Human) and against PIK3CG (human) was > 7.00 in each case.

For `Cc1ccccc1-n1c(Cn2nc(C3=CCC4OC(N)=NC4=C3)c3c(N)ncnc32)cc2cccc(C)c2c1=O` (configuration not stated), the pIC50 against PIK3CD (Human) and at PIK3CG (human) was > 7.00 throughout.

Regarding `CCc1ccccc1-n1c(Cn2nc(-c3cccc(O)c3)c3c(N)ncnc32)cc2cccc(C)c2c1=O`, the pIC50 on PIK3CD (Human) and on PIK3CG (human) was > 7.00 throughout.

Regarding `Nc1ncnc2c1c(-c1cc(O)cc(F)c1)nn2Cc1cc2cccc(Cl)c2c(=O)n1C1CC1`, the pIC50 on PIK3CD (Human), against PIK3CG (human), at PIK3CB (Human) and at PIK3CA (human) was > 7.00 each time.

Consider `Cc1cccc2cc(Cn3nc(-c4cccc(O)c4)c4c(N)ncnc43)n(-c3ccccc3)c(=O)c12`, for which the pIC50 against PIK3CD (Human) and at PIK3CG (human) was > 7.00 each time.

For the compound `Cc1ccccc1-n1c(Cn2nc(-c3ccc4nc(N)ncc4c3)c3c(N)ncnc32)cc2cccc(C)c2c1=O`, the negative-log IC50 (pIC50) at PIK3CD (Human), against PIK3CG (human) and at PIK3CA (human) was > 7.00 in each case.

In the case of `CC(=O)Nc1nc2ccc(-c3nn(Cc4cc5cccc(F)c5c(=O)n4C(C)C)c4ncnc(N)c34)cc2s1`, the negative logarithm of the IC50 (pIC50) on PIK3CD (Human) and at PIK3CA (human) was > 7.00 each time.

For `Cc1csc2nc(Cn3nc(-c4cccc(O)c4)c4c(N)ncnc43)n(-c3ccccc3C(C)C)c(=O)c12`, the pIC50 against PIK3CD (Human) and on PIK3CG (human) was > 7.00 throughout.

For the compound `CC(=O)Nc1nc2ccc(-c3nn(Cc4cc5cccc(C)c5c(=O)n4-c4ccccc4)c4ncnc(N)c34)cc2s1`, the pIC50 against PIK3CD (Human) and at PIK3CG (human) was > 7.00 each time.

On to `Cc1cccc2cc(Cn3nc(-c4cc(O)cc(F)c4)c4c(N)ncnc43)n(-c3ccccc3O)c(=O)c12`, for which the pIC50 against PIK3CD (Human) and against PIK3CG (human) was > 7.00 throughout.

On to `CCc1ccccc1-n1c(Cn2nc(Br)c3c(N)ncnc32)nc2scc(C)c2c1=O`, for which the negative-log IC50 (pIC50) at PIK3CD (Human) and at PIK3CG (human) was > 7.00 throughout.

Turning to `Cc1cccc2cc(C(C)Nc3ncnc4[nH]cnc34)n(-c3ccccc3F)c(=O)c12` (configuration not stated), the pIC50 against PIK3CD (Human) and at PIK3CG (human) was > 7.00 each time.

With `CC(=O)Nc1nc2ccc(-c3nn(Cc4cc5cccc(C)c5c(=O)n4C4CC4)c4ncnc(N)c34)cc2s1`, the pIC50 at PIK3CD (Human), against PIK3CB (Human) and against PIK3CA (human) was > 7.00 in each case.

For the compound `Cc1cccc2cc(Cn3nc(-c4cc(O)cc(F)c4)c4c(N)ncnc43)n(-c3ccccc3)c(=O)c12`, the negative-log IC50 (pIC50) at PIK3CD (Human) and on PIK3CG (human) was > 7.00 each time.

In the case of `CC(=O)Nc1nc2ccc(-c3nn(Cc4cc5cccc(C)c5c(=O)n4C)c4ncnc(N)c34)cc2s1`, the pIC50 against PIK3CD (Human) and on PIK3CA (human) was > 7.00 throughout.

As to `Cc1ccccc1-n1c(Cn2nc(-c3ccc(F)c(O)c3)c3c(N)ncnc32)nc2scc(C)c2c1=O`, the pIC50 against PIK3CD (Human) and against PIK3CG (human) was > 7.00 each time.

For `Cc1ccccc1-n1c(Cn2nc(-c3cccc(O)c3)c3c(N)ncnc32)nc2scc(C)c2c1=O`, the pIC50 at PIK3CD (Human) and against PIK3CG (human) was > 7.00 in each case.

Take `Cc1ccccc1-n1c(Cn2nc(I)c3c(N)ncnc32)cc2cccc(C)c2c1=O`: the pIC50 against PIK3CD (Human) and against PIK3CG (human) was > 7.00 each time.

For the compound `Cc1ccccc1-n1c(Cn2nc(-c3cccc(O)c3)c3c(N)ncnc32)cc2nccc(C)c2c1=O`, the pIC50 at PIK3CD (Human) and against PIK3CG (human) was > 7.00 in each case.

`Cc1cccc2cc(Cn3nc(-c4cc(O)cc(F)c4)c4c(N)ncnc43)n(-c3ccccc3F)c(=O)c12`: the pIC50 against PIK3CD (Human) and against PIK3CG (human) was > 7.00 throughout.

As to `Cc1cccc2cc(Cn3nc(-c4ccc(F)c(O)c4)c4c(N)ncnc43)n(C3CCCC3)c(=O)c12`, the pIC50 against PIK3CD (Human) and against PIK3CG (human) was > 7.00 throughout.

On to `Cc1ccccc1-n1c(Cn2nc(-c3ccc(O)c(Cl)c3)c3c(N)ncnc32)nc2scc(C)c2c1=O`, for which the pIC50 at PIK3CD (Human) and against PIK3CG (human) was > 7.00 each time.

As for `Cc1ccccc1-n1c(Cn2nc(-c3cn[nH]c3)c3c(N)ncnc32)cc2cccc(C)c2c1=O`, the pIC50 on PIK3CD (Human) and against PIK3CG (human) was > 7.00 throughout.

With `Cc1ccccc1-n1c(Cn2nc(C=C3SC(=O)NC3=O)c3c(N)ncnc32)cc2cccc(C)c2c1=O`, the pIC50 against PIK3CD (Human) and at PIK3CG (human) was > 7.00 throughout.

Regarding `Cc1ccccc1-n1c(Cn2nc(C)c3c(N)ncnc32)nc2scc(C)c2c1=O`, the negative logarithm of the IC50 (pIC50) on PIK3CD (Human) and at PIK3CG (human) was > 7.00 each time.

Take `CC(=O)Nc1nc2ccc(-c3nn(Cc4cc5cccc(Cl)c5c(=O)n4C4CC4)c4ncnc(N)c34)cc2s1`: the pIC50 at PIK3CD (Human), at PIK3CB (Human) and at PIK3CA (human) was > 7.00 in each case.

As for `Cc1cccc2cc(Cn3nc(C=C4SC(=O)NC4=O)c4c(N)ncnc43)n(-c3ccccc3F)c(=O)c12`, the pIC50 against PIK3CD (Human) and against PIK3CG (human) was > 7.00 each time.

`Cc1ccccc1-n1c(Cn2nc(-c3ccc(Cl)c(O)c3)c3c(N)ncnc32)cc2ccccc2c1=O`: the negative logarithm of the IC50 (pIC50) against PIK3CD (Human) and against PIK3CG (human) was > 7.00 in each case.

As for `Cc1ccccc1-n1c(Cn2nc(-c3ccc4cc[nH]c4c3)c3c(N)ncnc32)cc2cccc(C)c2c1=O`, the pIC50 at PIK3CD (Human) and against PIK3CG (human) was > 7.00 in each case.

As for `Cc1cccc2cc(Cn3nc(-c4cccc(O)c4)c4c(N)ncnc43)n(-c3ccccc3O)c(=O)c12`, the negative logarithm of the IC50 (pIC50) against PIK3CD (Human) and against PIK3CG (human) was > 7.00 in each case.

For the compound `Cc1ccccc1-n1c(Cn2nc(-c3cccc(O)c3)c3c(N)ncnc32)cc2cccc(F)c2c1=O`, the negative-log IC50 (pIC50) against PIK3CD (Human) and at PIK3CG (human) was > 7.00 throughout.

Regarding `Cc1cccnc1-n1c(Cn2nc(-c3ccc(F)c(O)c3)c3c(N)ncnc32)cc2cccc(C)c2c1=O`, the pIC50 against PIK3CD (Human) and against PIK3CG (human) was > 7.00 each time.

In the case of `Cc1ccccc1-n1c(Cn2nc(-c3cc(O)cc(F)c3)c3c(N)ncnc32)cc2ccccc2c1=O`, the pIC50 against PIK3CD (Human) and on PIK3CG (human) was > 7.00 throughout.

On to `Cc1csc2nc(Cn3nc(-c4cccc(O)c4)c4c(N)ncnc43)n(-c3ccccc3C(F)(F)F)c(=O)c12`, for which the negative logarithm of the IC50 (pIC50) against PIK3CD (Human) and against PIK3CG (human) was > 7.00 throughout.
